Measurements reported in patent publication US20230265116A1, “DEGRADATION OF (EGFR) BY CONJUGATION OF EGFR INHIBITORS WITH E3 LIGASE LIGAND AND METHODS OF USE” (BEIGENE, LTD., priority 2020, published 2023).

How the values were obtained:
[1] = system: EGFR Del19/T790M/C797S (BaF3-DTC cells); assay: EGFR degradation HTRF assay, BaF3-DTC cells; assay type: cell-based; conditions: 16h treatment; for DTC Dmax (%): maximum percentage of degradation; for DC50: read-out: DTC DC50
Description: BaF3 WT(wild type), BaF3-LTC(L858R/T790M/C797S) and BaF3-DTC(Del19/T790M/C797S) cells are treated with compounds diluted in 0.2% DMSO cell culture medium and incubate for 16h, 37° C., 5% CO2, H1975-#36, H1975-#28, H1975-#23 and HCC827 cells are treated with compounds diluted in 0.2% DMSO cell culture medium on day 2, incubate for 16h, 37° C., 5% CO2.the final concentriation of compounds in all assay is start with 10 uM, 5-fold dilution, total 8 doses were included.
After 16h treatment, add HTRF lysis buffer to each well; seal the plate and incubate 1 hour at room temperature on a plate shaker; Once the cells are lysed, 16 μL of cell lysate are transferred to a PE 384-well HTRF detection plate; 4 μL of pre-mixed HTRF antibodies are added to each well; Cover the plate with a plate sealer, spin 1000 rpm for 1 min, Incubate overnight at room temperature; Read on BMG PheraStar with HTRF protocol (337 nm-665 nm-620 nm).
The inhibition (degradation) percentage of the compound was calculated by the following equation: Inhibition percentage of Compound=100-100×(Signal-low control)/(High control-low control), wherein signal=each test compound group
High control=Cell group with added DMSO and without compound, indicating microplate readings without EGFR degradation;
Dmax is the maximum percentage of inhibition (degradation).
The IC50 (DC50) value of a compound can be obtained by fitting the following equation
Y=Bottom+(TOP−Bottom)/(1+((IC50/X)^hillslope))
Wherein, X and Y are known values, and IC50, Hillslope, Top and Bottom are the parameters obtained by fitting with software. Y is the inhibition percentage (calculated from the equation), X is the concentration of the compound; IC50 is the concentration of the compound when the 50% inhibition is reached. The smaller the IC50 value is, the stronger the inhibitory ability of the compound is. Vice versa, the higher the IC50 value is, the weaker the inhibitory ability of the compound is; Hillslope represents the slope of the fitted curve, generally around 1*; Bottom represents the minimum value of the curve obtained by data fitting, which is generally 0%±20%; Top represents the maximum value of the curve obtained by data fitting, which is generally 100%±20%. The experimental data were fitted by calculating and analyzing with Dotmatics data analysis software.

[2] = target: T1, EGFR L858R/T790M/C797S (BaF3-LTC cells) (Homo sapiens, UniProt P00533, C797S/L858R/T790M); assay: EGFR degradation HTRF assay, BaF3-LTC cells; assay type: cell-based; conditions: BaF3-LTC, 16h treatment; for Dmax: maximum percentage of degradation, read-out: LTC Dmax (%); for DC50: read-out: LTC DC50
T1 construct: expressed in transfected cells; host or cells: BaF3
T1 sequence (P00533 25-1210 T790M/C797S/L858R): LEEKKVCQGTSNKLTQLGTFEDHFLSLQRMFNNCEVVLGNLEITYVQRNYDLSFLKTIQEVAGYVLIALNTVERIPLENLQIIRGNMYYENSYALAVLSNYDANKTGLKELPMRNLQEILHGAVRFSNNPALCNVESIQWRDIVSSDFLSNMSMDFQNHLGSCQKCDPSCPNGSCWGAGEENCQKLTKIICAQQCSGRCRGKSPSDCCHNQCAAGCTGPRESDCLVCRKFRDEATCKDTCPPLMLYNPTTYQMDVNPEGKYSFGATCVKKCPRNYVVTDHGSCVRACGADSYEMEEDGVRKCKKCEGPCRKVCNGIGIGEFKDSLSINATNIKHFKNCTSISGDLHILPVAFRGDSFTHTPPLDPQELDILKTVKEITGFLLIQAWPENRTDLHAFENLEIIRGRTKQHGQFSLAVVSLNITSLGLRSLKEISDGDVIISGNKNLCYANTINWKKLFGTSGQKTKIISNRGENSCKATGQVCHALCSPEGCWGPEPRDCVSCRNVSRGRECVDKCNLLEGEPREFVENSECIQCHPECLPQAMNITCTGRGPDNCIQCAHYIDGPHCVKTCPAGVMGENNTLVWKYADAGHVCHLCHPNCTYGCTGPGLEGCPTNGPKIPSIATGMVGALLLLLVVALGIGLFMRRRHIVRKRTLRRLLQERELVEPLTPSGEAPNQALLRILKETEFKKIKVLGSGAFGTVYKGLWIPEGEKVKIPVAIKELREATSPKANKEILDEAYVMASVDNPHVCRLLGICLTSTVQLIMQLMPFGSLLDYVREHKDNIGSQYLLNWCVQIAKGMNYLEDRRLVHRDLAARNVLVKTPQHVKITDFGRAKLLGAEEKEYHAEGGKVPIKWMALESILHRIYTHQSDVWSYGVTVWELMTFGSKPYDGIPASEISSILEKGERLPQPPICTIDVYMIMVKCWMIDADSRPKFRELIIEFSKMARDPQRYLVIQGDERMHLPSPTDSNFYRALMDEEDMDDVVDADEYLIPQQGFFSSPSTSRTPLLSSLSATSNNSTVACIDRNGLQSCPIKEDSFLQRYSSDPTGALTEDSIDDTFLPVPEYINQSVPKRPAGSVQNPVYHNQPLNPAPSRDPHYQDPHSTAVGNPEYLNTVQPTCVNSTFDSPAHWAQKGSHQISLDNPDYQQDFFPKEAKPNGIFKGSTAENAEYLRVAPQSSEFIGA
Method in brief: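 Cells treated 16 h at 37 °C, 5% CO2 in medium with 0.2% DMSO; top final concentration 10 uM, 5-fold dilution, 8 doses. Lysates read by HTRF (665/620 nm); degradation % versus DMSO high control, DC50 from four-parameter fit, Dmax as maximal degradation.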

SMILES | DTC Dmax (%) [1] | DC50 [1] | Dmax [2] | DC50 [2]
CCc1cc(Nc2ncc(Br)c(Nc3ccc4ncccc4c3P(C)(C)=O)n2)c(OC)cc1N1CCC(N2CCN(CCc3cc(F)c(C4CCC(=O)NC4=O)c(F)c3)CC2)CC1 (stereo not shown) [Example 201, 3-(4-(2-(4-(1-(4-((5-bromo-4-((5-(dimethylphosphoryl)quinolin-6-yl)amino)pyrimidin-2-yl)amino)-2-ethyl-5-methoxyphenyl)piperidin-4-yl)piperazin-1-yl)ethyl)-2,6-difluorophenyl)piperidine-2,6-dione] | 95.68% | 1.72 nM | 92% | 6.8 nM
CCc1cc(Nc2ncc(Br)c(Nc3ccc4ncccc4c3P(C)(C)=O)n2)c(OC)cc1N1CCC(N2CCN(CCC3CCN(c4cc(F)c(C5CCC(=O)NC5=O)c(F)c4)CC3)CC2)CC1 (stereo not shown) [Example 202, 3-(4-(4-(2-(4-(1-(4-((5-bromo-4-((5-(dimethylphosphoryl)quinolin-6-yl)amino)pyrimidin-2-yl)amino)-2-ethyl-5-methoxyphenyl)piperidin-4-yl)piperazin-1-yl)ethyl)piperidin-1-yl)-2,6-difluorophenyl)piperidine-2,6-dione] | 93.39% | 7.6 nM | 87.8% | 18.5 nM
COc1cc(N2CCN(C3CN(CCC4CCN(c5cc(F)c(C6CCC(=O)NC6=O)c(F)c5)CC4)C3)CC2)c(C)cc1Nc1ncc(Br)c(Nc2ccc3nccnc3c2P(C)(C)=O)n1 (stereo not shown) [Example 204, 3-(4-(4-(2-(3-(4-(4-((5-bromo-4-((5-(dimethylphosphoryl)quinoxalin-6-yl)amino)pyrimidin-2-yl)amino)-5-methoxy-2-methylphenyl)piperazin-1-yl)azetidin-1-yl)ethyl)piperidin-1-yl)-2,6-difluorophenyl)piperidine-2,6-dione] | 91.45% | 15.6 nM | 85.7% | 31 nM
CCc1cc(Nc2ncc(Br)c(Nc3ccc4nccnc4c3P(C)(C)=O)n2)c(OC)cc1N1CCC(N2CCN(CCCc3cc(F)c(C4CCC(=O)NC4=O)c(F)c3)CC2)CC1 (stereo not shown) [Example 205, 3-(4-(3-(4-(1-(4-((5-bromo-4-((5-(dimethylphosphoryl)quinoxalin-6-yl)amino)pyrimidin-2-yl)amino)-2-ethyl-5-methoxyphenyl)piperidin-4-yl)piperazin-1-yl)propyl)-2,6-difluorophenyl)piperidine-2,6-dione] | 90.39% | 6.63 nM | 87.7% | 32.5 nM
CCc1cc(Nc2ncc(Br)c(Nc3ccc4scnc4c3P(C)(C)=O)n2)c(OC)cc1N1CCC(N2CCN(CCc3cc(F)c(C4CCC(=O)NC4=O)c(F)c3)CC2)CC1 (stereo not shown) [Example 206, 3-(4-(2-(4-(1-(4-((5-bromo-4-((4-(dimethylphosphoryl)benzo[d]thiazol-5-yl)amino)pyrimidin-2-yl)amino)-2-ethyl-5-methoxyphenyl)piperidin-4-yl)piperazin-1-yl)ethyl)-2,6-difluorophenyl)piperidine-2,6-dione] | 94.22% | 9.26 nM | 92.1% | 20.9 nM
CCc1cc(Nc2ncc(Br)c(Nc3ccc4nc(C)ccc4c3P(C)(C)=O)n2)c(OC)cc1N1CCC(N2CCN(CC3CN(c4ccc(C5CCC(=O)NC5=O)c(C#N)c4)C3)CC2)CC1 (stereo not shown) [Example 207, 5-(3-((4-(1-(4-((5-bromo-4-((5-(dimethylphosphoryl)-2-methylquinolin-6-yl)amino)pyrimidin-2-yl)amino)-2-ethyl-5-methoxyphenyl)piperidin-4-yl)piperazin-1-yl)methyl)azetidin-1-yl)-2-(2,6-dioxopiperidin-3-yl)benzonitrile] | 90.41% | 6.6 nM | 91.3% | 13.2 nM
CCc1cc(Nc2ncc(Br)c(Nc3ccc4nc(C)ccc4c3P(C)(C)=O)n2)c(OC)cc1N1CCC(N2CCN(C(=O)[C@@H]3CCN(c4cc(F)c(C5CCC(=O)NC5=O)c(F)c4)C3)CC2)CC1 (stereo partly drawn) [Example 208, 3-(4-((R)-3-(4-(1-(4-((5-bromo-4-((5-(dimethylphosphoryl)-2-methylquinolin-6-yl)amino)pyrimidin-2-yl)amino)-2-ethyl-5-methoxyphenyl)piperidin-4-yl)piperazine-1-carbonyl)pyrrolidin-1-yl)-2,6-difluorophenyl)piperidine-2,6-dione] | 97.62% | 1.47 nM | 93.9% | 4.13 nM
CCc1cc(Nc2ncc(Br)c(Nc3ccc4nc(C)ccc4c3P(C)(C)=O)n2)c(OC)cc1N1CCC(N2CCN(C(=O)[C@H]3C[C@H](Nc4cc(F)c(C5CCC(=O)NC5=O)c(F)c4)C3)CC2)CC1 (stereo partly shown) [Example 209, 3-(4-(((1r,3r)-3-(4-(1-(4-((5-bromo-4-((5-(dimethylphosphoryl)-2-methylquinolin-6-yl)amino)pyrimidin-2-yl)amino)-2-ethyl-5-methoxyphenyl)piperidin-4-yl)piperazine-1-carbonyl)cyclobutyl)amino)-2,6-difluorophenyl)piperidine-2,6-dione] | 96.2% | 2.1 nM | 95.5% | 3.92 nM
CCc1cc(Nc2ncc(Br)c(Nc3ccc4nc(C)ccc4c3P(C)(C)=O)n2)c(OC)cc1N1CCC(N2CCN(C(=O)C3CCN(c4ccc5c(c4)n(C)c(=O)n5C4CCC(=O)NC4=O)CC3)CC2)CC1 (stereo not shown) [Example 210, 3-(5-(4-(4-(1-(4-((5-bromo-4-((5-(dimethylphosphoryl)-2-methylquinolin-6-yl)amino)pyrimidin-2-yl)amino)-2-ethyl-5-methoxyphenyl)piperidin-4-yl)piperazine-1-carbonyl)piperidin-1-yl)-3-methyl-2-oxo-2,3-dihydro-1H-benzo[d]imidazol-1-yl)piperidine-2,6-dione] | 92.69% | 0.781 nM | 90.5% | 1.24 nM
CCc1cc(Nc2ncc(Br)c(Nc3ccc4nc(C)ccc4c3P(C)(C)=O)n2)c(OC)cc1N1CCC(N2CCN(CCc3ccc4c(cnn4C4CCC(=O)NC4=O)c3)CC2)CC1 (stereo not shown) [Example 211, 3-(5-(2-(4-(1-(4-((5-bromo-4-((5-(dimethylphosphoryl)-2-methylquinolin-6-yl)amino)pyrimidin-2-yl)amino)-2-ethyl-5-methoxyphenyl)piperidin-4-yl)piperazin-1-yl)ethyl)-1H-indazol-1-yl)piperidine-2,6-dione] | 94.88% | 2.72 nM | 91.4% | 4.75 nM
COc1cc(N2CCC(N3CCN(CCc4ccc(C5CCC(=O)NC5=O)c(F)c4)CC3)CC2)ccc1Nc1ncc(Br)c(Nc2ccc3nccnc3c2P(C)(C)=O)n1 (stereo not shown) [Example 212, 3-(4-(2-(4-(1-(4-((5-bromo-4-((5-(dimethylphosphoryl)quinoxalin-6-yl)amino)pyrimidin-2-yl)amino)-3-methoxyphenyl)piperidin-4-yl)piperazin-1-yl)ethyl)-2-fluorophenyl)piperidine-2,6-dione] | 94.28% | 16.6 nM | 78.8% | 81.2 nM
COc1cc(N2CCC(N3CCN(CCC4CCN(c5cc(F)c(C6CCC(=O)NC6=O)c(F)c5)CC4)CC3)CC2)ccc1Nc1ncc(Br)c(Nc2ccc3nccnc3c2P(C)(C)=O)n1 (stereo not shown) [Example 213, 3-(4-(4-(2-(4-(1-(4-((5-bromo-4-((5-(dimethylphosphoryl)quinoxalin-6-yl)amino)pyrimidin-2-yl)amino)-3-methoxyphenyl)piperidin-4-yl)piperazin-1-yl)ethyl)piperidin-1-yl)-2,6-difluorophenyl)piperidine-2,6-dione] | 94.05% | 4.71 nM | 88.6% | 21.1 nM
COc1cc(N2CCC(N3CCN(CCc4ccc(C5CCC(=O)NC5=O)c(F)c4)CC3)CC2)c(C)cc1Nc1ncc(Br)c(Nc2ccc3nccnc3c2P(C)(C)=O)n1 (stereo not shown) [Example 214, 3-(4-(2-(4-(1-(4-((5-bromo-4-((5-(dimethylphosphoryl)quinoxalin-6-yl)amino)pyrimidin-2-yl)amino)-5-methoxy-2-methylphenyl)piperidin-4-yl)piperazin-1-yl)ethyl)-2-fluorophenyl)piperidine-2,6-dione] | 85.16% | 13.7 nM | 75% | 54.9 nM
